From US6025358A, “Double prodrugs of potent GP IIb/IIIa antagonists” (G. D. Searle & Co., priority 1999, dated 2000)
Where a name gives a salt, the structure may show the parent alone.

Each compound was assayed on platelet aggregation (assay: Ex vivo screening of oral GP IIb/IIIa inhibitors: inhibition of collagen-induced platelet aggregation in PRP after oral dosing in beagles). Details: Canis lupus familiaris, Platelet, beagle dogs, 5 mpk, n = 2, 32 hours post-dosing, collagen agonist, read-out: Percent inhibition of platelet aggregation at 32 hour post-dosing.
Description: Beagles (8-13 kg, various sources) of either sex are dosed orally with compound in a gelatin capsule. Blood samples are drawn from the cephalic vein using a 23 ga infusion butterfly. Samples for platelet aggregation and drug concentration are taken prior to dosing and 0.5, 1, 2, 3, 5, 7 and 10 hours after dosing and periodically on subsequent days until inhibition of platelet aggregation is less than 30%. Animals are fasted, with ad lib access to water, overnight prior to dosing. For measurement of plasma concentration blood is drawn into a 3 ml tube containing 45 USP units of Na Heparin. Blood is centrifuged at 1700×g for 10 minutes, plasma is aspirated and frozen at -20° C. until analyzed by HPLC. For measurement of platelet aggregation, blood is drawn into 2 2.0 ml tubes containing 0.2 ml of 3.8% Na Citrate. Blood is centrifuged at 250×g for 6 minutes and the platelet rich plasma (PRP) is aspirated. The remaining blood is centrifuged at 1700×g for 10 minutes and platelet poor plasma (PPP) is aspirated. Platelet aggregation is performed in a Bio-Data PAP-4 aggregometer (Bio-Data Corp., Havertown, Pa.) using collagen (100 μg/ml final concentration; Helena Laboratories, Beaumont, Tex.) as the agonist. Briefly, baseline (100% aggregation) is set using PPP; PRP is incubated at 37° C. for one minute without stirring and one minute with stirring, agonist is added and aggregation is allowed to develop for 4 minutes. Percent aggregation post-dosing is compared to percent aggregation pre-dosing to determine percent inhibition.
Percent inhibition of platelet aggregation at 32 hour post-dosing in
beagle dogs (5 mpk, n = 2)
With CC(C)OC(=O)CCNC(=O)N[C@H]1CCN(c2ccc(C(=N)NOC(=O)NCCN(C)C)cc2)C1=O [3(j), N-[[[(3S)-1-[4-(1-imino-8-methyl-4-oxo-3-oxa-2,5,8-triazanon-1-yl)phenyl]-2-oxo-3-pyrrolidinyl]amino]carbonyl]-β-alanine 1-methylethyl ester monoacetate] the inhibition in vivo at 5 mg/kg was 34%.
CCCOC(=O)CCNC(=O)N[C@H]1CCN(c2ccc(C(=N)NOC(=O)N3CCN(C)CC3)cc2)C1=O [3(l), N-[[[(3S)-1-[4-[imino[[[(4-methyl-1-piperazinyl)carbonyl]oxy]amino]methyl]phenyl]-2-oxo-3-pyrrolidinyl]amino]carbonyl]-β-alanine propyl ester dihydrochloride] showed an inhibition in vivo at 5 mg/kg of 71%.
Work on CCOC(=O)CCNC(=O)N[C@H]1CCN(c2ccc(C(N)=NOC(N)=O)cc2)C1=O [5(a), N-[[[(3S)-1-[4-[[[(aminocarbonyl)oxy]amino]iminomethyl]phenyl]-2-oxo-3-pyrrolidinyl]amino]carbonyl]-β-alanine ethyl ester] yielded an inhibition in vivo at 5 mg/kg of 82%.
For COC(=O)CCNC(=O)N[C@H]1CCN(c2ccc(C(=N)NOC(=O)NCCN(C)C)cc2)C1=O [3(b), N-[[[(3S)-1-[4-(1-imino-8-methyl-4-oxo-3-oxa-2,5,8-triazanon-1-yl)phenyl]-2-oxo-3-pyrrolidinyl]amino]carbonyl]-β-alanine methyl ester], the inhibition in vivo at 5 mg/kg was 54%.
COC(=O)CCNC(=O)N[C@H]1CCN(c2ccc(C(N)=NO)cc2)C1=O [Example 1(a), N-[[[(3S)-1-[4-[(hydroxyamino)iminomethyl]phenyl]-2-oxo-3-pyrrolidinyl]amino]carbonyl]-β-alanine methyl ester] gave an inhibition in vivo at 5 mg/kg of 85%.
CN1CCN(C(=O)ONC(=N)c2ccc(N3CC[C@H](NC(=O)NCCC(=O)OC4CCCCC4)C3=O)cc2)CC1 [3(cc), N-[[[(3S)-1-[4-[imino[[[(4-methyl-1-piperazinyl)carbonyl]oxy]amino]methyl]phenyl]-2-oxo-3-pyrrolidinyl]amino]carbonyl]-β-alanine cyclohexyl ester dihydrochloride monohydrate] showed an inhibition in vivo at 5 mg/kg of 22%.
In the case of CCCOC(=O)CCNC(=O)N[C@H]1CCN(c2ccc(C(N)=NO)cc2)C1=O [1(c), N-[[[(3S)-1-[4-[(hydroxyamino)iminomethyl]phenyl]-2-oxo-3-pyrrolidinyl]amino]carbonyl]-β-alanine propyl ester monohydrochloride], the inhibition in vivo at 5 mg/kg is reported as 94%.
For CC(C)OC(=O)CCNC(=O)N[C@H]1CCN(c2ccc(C(N)=NOC(N)=O)cc2)C1=O [5(b), N-[[[(3S)-1-[4-[[[(aminocarbonyl)oxy]amino]iminomethyl]phenyl]-2-oxo-3-pyrrolidinyl]amino]carbonyl]-β-alanine 1-methylethyl ester], the inhibition in vivo at 5 mg/kg was 64%.
With CCCCOC(=O)CCNC(=O)N[C@H]1CCN(c2ccc(C(=N)NOC(=O)N(C)CCN(C)C)cc2)C1=O [3(u), N-[[[(3S)-1-[4-(1-imino-5,8-dimethyl-4-oxo-3-oxa-2,5,8-triazanon-1-yl)phenyl]-2-oxo-3-pyrrolidinyl]amino]carbonyl]-β-alanine butyl ester dihydrochloride] the inhibition in vivo at 5 mg/kg was 63%.
Work on CCOC(=O)CCNC(=O)N[C@H]1CCN(c2ccc(C(N)=NOC(C)=O)cc2)C1=O [Example 8, N-[[[(3S)-1-[4-[[(acetyloxy)amino]iminomethyl]phenyl]-2-oxo-3-pyrrolidinyl]amino]carbonyl]-β-alanine ethyl ester] yielded an inhibition in vivo at 5 mg/kg of 57%.
For CC(C)COC(=O)CCNC(=O)N[C@H]1CCN(c2ccc(C(=N)NOC(=O)N(C)CCN(C)C)cc2)C1=O [3(q), N-[[[(3S)-1-[4-(1-imino-5,8-dimethyl-4-oxo-3-oxa-2,5,8-triazanon-1-yl)phenyl]-2-oxo-3-pyrrolidinyl]amino]carbonyl]-β-alanine 2-methylpropyl ester dihydrochloride], the inhibition in vivo at 5 mg/kg was 57%.
For CCCOC(=O)CCNC(=O)N[C@H]1CCN(c2ccc(C(N)=NOC(=O)N(C)C)cc2)C1=O [4(c), N-[[[(3S)-1-[4-[[[[(dimethylamino)carbonyl]oxy]amino]iminomethyl]phenyl]-2-oxo-3-pyrrolidinyl]amino]carbonyl]-β-alanine propyl ester], the inhibition in vivo at 5 mg/kg was 64%.
For CC(C)COC(=O)CCNC(=O)N[C@H]1CCN(c2ccc(C(=N)NOC(=O)NCCN(C)C)cc2)C1=O [3(r), N-[[[(3S)-1-[4-(1-imino-8-methyl-4-oxo-3-oxa-2,5,8-triazanon-1-yl)phenyl]-2-oxo-3-pyrrolidinyl]amino]carbonyl]-β-alanine 2-methylpropyl ester monoacetate], the inhibition in vivo at 5 mg/kg was 46%.
With CCOC(=O)CCNC(=O)N[C@H]1CCN(c2ccc(C(=N)NC(=O)c3ccccc3)cc2)C1=O [Example 7, N-[[[3(S)-1-[4-[imino[(phenylcarbonyl)amino]methyl]phenyl]-2-oxo-3-pyrrolidinyl]amino]carbonyl]-β-alanine ethyl ester] the inhibition in vivo at 5 mg/kg was 53%.
With CCOC(=O)CCNC(=O)N[C@H]1CCN(c2ccc(C(=N)NOC(=O)NCCN(C)C)cc2)C1=O [3(f), N-[[[(3S)-1-[4-(1-imino-8-methyl-4-oxo-3-oxa-2,5,8-triazanon-1-yl)phenyl]-2-oxo-3-pyrrolidinyl]amino]carbonyl]-β-alanine ethyl ester monoacetate] the inhibition in vivo at 5 mg/kg was 35%.
CCOC(=O)CCNC(=O)N[C@H]1CCN(c2ccc(C(N)=NOC(=O)N(C)C)cc2)C1=O [4(a), N-[[[(3S)-1-[4-[[[[(dimethylamino)carbonyl]oxy]amino]iminomethyl]phenyl]-2-oxo-3-pyrrolidinyl]amino]carbonyl]-β-alanine ethyl ester] showed an inhibition in vivo at 5 mg/kg of 63%.
With CCCOC(=O)CCNC(=O)N[C@H]1CCN(c2ccc(C(=N)NOC(=O)NCCN(C)C)cc2)C1=O [3(n), N-[[[(3S)-1-[4-(1-imino-8-methyl-4-oxo-3-oxa-2,5,8-triazanon-1-yl)phenyl]-2-oxo-3-pyrrolidinyl]amino]carbonyl]-β-alanine propyl ester monoacetate monohydrate] the inhibition in vivo at 5 mg/kg was 73%.
For CC(C)OC(=O)CCNC(=O)N[C@H]1CCN(c2ccc(C(N)=NOC(=O)N(C)C)cc2)C1=O [4(b), N-[[[(3S)-1-[4-[[[[(dimethylamino)carbonyl]oxy]amino]iminomethyl]phenyl]-2-oxo-3-pyrrolidinyl]amino]carbonyl]-β-alanine 1-methylethyl ester], the inhibition in vivo at 5 mg/kg was 20%.
CCOC(=O)CCNC(=O)N[C@H]1CCN(c2ccc(C(=N)NOC(=O)OCC(Cl)(Cl)Cl)cc2)C1=O [Example 10, N-[[[(3S)-1-[4-[imino[[[(2,2,2-trichloroethoxy)carbonyl]oxy]amino]methyl]phenyl]-2-oxo-3-pyrrolidinyl]amino]carbonyl]-β-alanine ethyl ester] gave an inhibition in vivo at 5 mg/kg of 84%.
Compound NC(=O)ON=C(N)c1ccc(N2CC[C@H](NC(=O)NCCC(=O)OC3CCCCC3)C2=O)cc1 [5(h), N-[[[(3S)-1-[4-[[[(aminocarbonyl)oxy]amino]iminomethyl]phenyl]-2-oxo-3-pyrrolidinyl]amino]carbonyl]-β-alanine cyclohexyl ester] has an inhibition in vivo at 5 mg/kg of 28%.
CCCCCOC(=O)CCNC(=O)N[C@H]1CCN(c2ccc(C(N)=NO)cc2)C1=O [1(h), N-[[[(3S)-1-[4-[(hydroxyamino)iminomethyl]phenyl]-2-oxo-3-pyrrolidinyl]amino]carbonyl]-β-alanine pentyl ester monohydrochloride] gave an inhibition in vivo at 5 mg/kg of 39%.
COC(=O)CCNC(=O)N[C@H]1CCN(c2ccc(C(N)=NOC(=O)N(C)C)cc2)C1=O [Example 4, N-[[[(3S)-1-[4-[[[[(dimethylamino)carbonyl]oxy]amino]iminomethyl]phenyl]-2-oxo-3-pyrrolidinyl]amino]carbonyl]-β-alanine methyl ester] was tested, and the inhibition in vivo at 5 mg/kg was 68%.
Compound CCCCCOC(=O)CCNC(=O)N[C@H]1CCN(c2ccc(C(=N)NOC(=O)N3CCN(C)CC3)cc2)C1=O [3(ff), N-[[[(3S)-1-[4-[imino[[[(4-methyl-1-piperazinyl)carbonyl]oxy]amino]methyl]-phenyl]-2-oxo-3-pyrrolidinyl]amino]carbonyl]-β-alanine pentyl ester dihydrochloride] has an inhibition in vivo at 5 mg/kg of 70%.
CC(C)OC(=O)CCNC(=O)N[C@H]1CCN(c2ccc(C(N)=NO)cc2)C1=O [1(b), N-[[[(3S)-1-[4-[(hydroxyamino)iminomethyl]phenyl]-2-oxo-3-pyrrolidinyl]amino]carbonyl]-β-alanine 1-methylethyl ester monohydrochloride] gave an inhibition in vivo at 5 mg/kg of 71%.

Same assay, conditions: beagle dogs, 5 mpk, n = 2, 10 hours post-dosing, collagen agonist
For CN(C)CCN(C)C(=O)ONC(=N)c1ccc(N2CC[C@H](NC(=O)NCCC(=O)O)C2=O)cc1.O.O=C(O)C(F)(F)F.O=C(O)C(F)(F)F [6(a), N-[[[(3S)-1-[4-(1-imino-5,8-dimethyl-4-oxo-3-oxa-2,5,8-triazanon-1-yl)phenyl]-2-oxo-3-pyrrolidinyl]amino]carbonyl]-β-alanine bis(trifluoroacetate) monohydrate], the “% inhibition of platelet aggregation @ 10 hours” value was 61%.
